From ChEMBL document CHEMBL1201862, “PubChem BioAssay data set” (2004)
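Exposure lasted 48 hours, with cells grown in 96-well plates and compounds tested at five concentrations. The concentration for 50% growth inhibition is given as GI50.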 Activity calls are given as the source filed them. Rule as the data show it: active = GI50 up to about 1.1 µM and inactive = higher.

Legend:
Experiment in all cases: NCI-60 cell line screen, 48 h
786-0 = test system: 786-0
A498 = test system: A498
A549 = test system: A549
ACHN = test system: ACHN
BT-549 = test system: BT-549
CAKI-1 = test system: CAKI-1
CCRF-CEM = test system: CCRF-CEM
COLO 205 = test system: COLO 205
DU-145 = test system: DU-145
EKVX = test system: EKVX
HCC 2998 = test system: HCC 2998
HCT-116 = test system: HCT-116
HCT-15 = test system: HCT-15
HL-60 = test system: HL-60
HOP-62 = test system: HOP-62
HOP-92 = test system: HOP-92
HT-29 = test system: HT-29
Hs-578T = test system: Hs-578T
K562 = test system: K562
KM12 = test system: KM12
LOX IMVI = test system: LOX IMVI
M14 = test system: M14
MCF7 = test system: MCF7
MDA-MB-231 = test system: MDA-MB-231
MDA-MB-435 = test system: MDA-MB-435
MOLT-4 = test system: MOLT-4
Malme-3M = test system: Malme-3M
NCI-H226 = test system: NCI-H226
NCI-H23 = test system: NCI-H23
NCI-H460 = test system: NCI-H460
NCI-H522 = test system: NCI-H522
OVCAR-3 = test system: OVCAR-3
OVCAR-4 = test system: OVCAR-4
OVCAR-5 = test system: OVCAR-5
OVCAR-8 = test system: OVCAR-8
PC-3 = test system: PC-3
RPMI-8226 = test system: RPMI-8226
RXF 393 = test system: RXF 393
SF-268 = test system: SF-268
SF-295 = test system: SF-295
SF-539 = test system: SF-539
SK-OV-3 = test system: SK-OV-3
SN12C = test system: SN12C
SNB-19 = test system: SNB-19
SNB-75 = test system: SNB-75
SR = test system: SR
SW-620 = test system: SW-620
T47D = test system: T47D
TK-10 = test system: TK-10
U-251 = test system: U-251
UACC-257 = test system: UACC-257
UACC-62 = test system: UACC-62
UO-31 = test system: UO-31
IGROV-1 = test system: IGROV-1
NCI/ADR-RES = test system: NCI/ADR-RES
SK-MEL-28 = test system: SK-MEL-28
SK-MEL-2 = test system: SK-MEL-2
SK-MEL-5 = test system: SK-MEL-5

O=C1c2ccccc2/N=C(/c2cc3c(cc2Cl)Sc2nccn2S3(=O)=O)OS(=O)(=O)N1c1ccccc1 was tested, and the GI50 (786-0) was 38.4 µM (inactive), the GI50 (A498) was > 100 µM (inactive) and the GI50 (A549) was 30.3 µM (inactive). The GI50 (ACHN) was 25.8 µM (inactive), the GI50 (BT-549) was 17.8 µM (inactive) and the GI50 (CAKI-1) was 35.7 µM (inactive). The GI50 (CCRF-CEM) was 4.65 µM (inactive), the GI50 (COLO 205) was 19.9 µM (inactive) and the GI50 (DU-145) was 37.4 µM (inactive). For the same molecule, the GI50 (EKVX) was 30 µM (inactive), the GI50 (HCC 2998) was 8.36 µM (inactive) and the GI50 (HCT-116) was 15.5 µM (inactive). The GI50 (HCT-15) was 20.2 µM, the GI50 (HL-60) was 31.3 µM (inactive) and the GI50 (HOP-62) was 21.7 µM (inactive). For the same molecule, the GI50 (HOP-92) was 80.5 µM (inactive), the GI50 (HT-29) was 23.3 µM (inactive) and the GI50 (Hs-578T) was 46.8 µM (inactive). For the same molecule, the GI50 (K562) was 35.2 µM (inactive), the GI50 (KM12) was 23 µM (inactive) and the GI50 (LOX IMVI) was 8.09 µM (inactive). The GI50 (M14) was 16.9 µM (inactive), the GI50 (MCF7) was 24.6 µM (inactive) and the GI50 (MDA-MB-231) was 22.7 µM (inactive). For the same molecule, the GI50 (MDA-MB-435) was 21.3 µM (inactive), the GI50 (MOLT-4) was 9.33 µM (inactive) and the GI50 (Malme-3M) was 73.8 µM (inactive). For the same molecule, the GI50 (NCI-H226) was 39.4 µM (inactive), the GI50 (NCI-H23) was 22.4 µM (inactive) and the GI50 (NCI-H460) was 29.8 µM (inactive). The GI50 (NCI-H522) was 5.31 µM (inactive), the GI50 (OVCAR-3) was 37 µM (inactive) and the GI50 (OVCAR-4) was 21.1 µM (inactive). For the same molecule, the GI50 (OVCAR-5) was 19.4 µM (inactive), the GI50 (OVCAR-8) was 17.4 µM (inactive) and the GI50 (PC-3) was 44.4 µM (inactive). For the same molecule, the GI50 (RPMI-8226) was 18.6 µM (inactive), the GI50 (RXF 393) was 20.8 µM (inactive) and the GI50 (SF-268) was 37.3 µM (inactive). The GI50 (SF-295) was 16.9 µM (inactive), the GI50 (SF-539) was 36.7 µM (inactive) and the GI50 (SK-OV-3) was 36.3 µM (inactive). The GI50 (SN12C) was 32.1 µM (inactive), the GI50 (SNB-19) was 33.7 µM (inactive) and the GI50 (SNB-75) was 7.4 µM (inactive). The GI50 (SR) was 10.8 µM (inactive), the GI50 (SW-620) was 24.9 µM (inactive) and the GI50 (T47D) was > 100 µM (inactive). The GI50 (TK-10) was 24.4 µM (inactive), the GI50 (U-251) was 29.2 µM (inactive) and the GI50 (UACC-257) was 64.7 µM (inactive). The GI50 (UACC-62) was 20.5 µM (inactive) and the GI50 (UO-31) was 26 µM (inactive).

With Sc1cnnc2ccc(Br)cc12 the GI50 (786-0) was > 100 µM (inactive), the GI50 (A498) was 53.3 µM (inactive) and the GI50 (A549) was 36.1 µM (inactive). For the same molecule, the GI50 (ACHN) was 28.5 µM (inactive), the GI50 (BT-549) was 37.3 µM (inactive) and the GI50 (CAKI-1) was 73.1 µM (inactive). For the same molecule, the GI50 (CCRF-CEM) was 36.9 µM (inactive), the GI50 (COLO 205) was > 100 µM (inactive) and the GI50 (DU-145) was 50.7 µM (inactive). The GI50 (EKVX) was 22.5 µM (inactive), the GI50 (HCC 2998) was 34.6 µM (inactive) and the GI50 (HCT-116) was 86.1 µM (inactive). The GI50 (HCT-15) was 78.3 µM, the GI50 (HL-60) was 36.8 µM (inactive) and the GI50 (HOP-62) was > 100 µM (inactive). The GI50 (HOP-92) was 42.7 µM (inactive), the GI50 (HT-29) was 26.4 µM (inactive) and the GI50 (Hs-578T) was 57.3 µM (inactive). For the same molecule, the GI50 (IGROV-1) was 48.1 µM (inactive), the GI50 (K562) was 37.8 µM (inactive) and the GI50 (KM12) was 50.4 µM (inactive). The GI50 (LOX IMVI) was 46 µM (inactive), the GI50 (M14) was 61 µM (inactive) and the GI50 (MCF7) was 34.7 µM (inactive). For the same molecule, the GI50 (MDA-MB-231) was > 100 µM (inactive), the GI50 (MDA-MB-435) was 27.4 µM (inactive) and the GI50 (MOLT-4) was 40.2 µM (inactive). For the same molecule, the GI50 (Malme-3M) was 24.7 µM (inactive), the GI50 (NCI-H226) was 49.3 µM (inactive) and the GI50 (NCI-H23) was 28.8 µM (inactive). For the same molecule, the GI50 (NCI-H460) was 35.6 µM (inactive), the GI50 (NCI-H522) was 28 µM (inactive) and the GI50 (NCI/ADR-RES) was 48.6 µM (inactive). The GI50 (OVCAR-3) was 30.3 µM (inactive), the GI50 (OVCAR-4) was 35.9 µM (inactive) and the GI50 (OVCAR-5) was > 100 µM (inactive). For the same molecule, the GI50 (OVCAR-8) was 59.2 µM (inactive), the GI50 (RPMI-8226) was 69 µM (inactive) and the GI50 (RXF 393) was 22.7 µM (inactive). The GI50 (SF-268) was 58.7 µM (inactive), the GI50 (SF-295) was 34 µM (inactive) and the GI50 (SF-539) was 33 µM (inactive). For the same molecule, the GI50 (SK-MEL-28) was 40.4 µM (inactive), the GI50 (SK-MEL-2) was 26.6 µM (inactive) and the GI50 (SK-MEL-5) was 32.1 µM (inactive). The GI50 (SK-OV-3) was > 100 µM (inactive), the GI50 (SN12C) was 69.5 µM (inactive) and the GI50 (SNB-19) was 74.3 µM (inactive). The GI50 (SNB-75) was > 100 µM (inactive), the GI50 (SR) was 52 µM (inactive) and the GI50 (SW-620) was > 100 µM (inactive). For the same molecule, the GI50 (T47D) was 51.9 µM (inactive), the GI50 (TK-10) was 38.6 µM (inactive) and the GI50 (U-251) was 38.7 µM (inactive). The GI50 (UACC-257) was 29.4 µM (inactive), the GI50 (UACC-62) was 32.3 µM (inactive) and the GI50 (UO-31) was 34.9 µM (inactive).
